According to patent US11390648B2, “Peptide” (HYSENSBIO, priority 2017, dated 2022):

tested on: Dspp gene; test: Dspp mRNA level in human dental pulp cells treated with peptide (real-time PCR); assay type: cell-based; conditions: hDPCs, peptide 10 μg/ml, 48 hours; ratio relative to Dspp mRNA level of untreated control; GAPDH internal control; triplicate
Procedure: Human dental pulp cells were separated from wisdom teeth of adults (aged 18-22) at the School of Dentistry, Seoul National University. In detail, all experiments were performed after the approval of the Institutional Review Board and the informed consent from patients. Wisdom teeth were fractured according to a method of Jung HS et al. (J Mol Histol.(2011)) to expose the dental pulps, and dental pulp tissues were separated with forceps. Each of the separated dental pulp tissues was cut into small pieces with a razor blade, put in a 60-mm dish, covered with a coverslip, and then cultured in a Dulbecco's modified Eagle's medium. It has been known that human dental pulp cells can differentiate into odontoblast, osteoblast, cementoblast, and periodontal ligament cells under various conditions (Tissue Eng Part A. 2014 April; 20 (7-8): 1342-51).
Total RNA was extracted from human dental pulp cells (hDPCs), and human bone marrow mesenchymal stem cells (hBMSCs) with TRIzol reagent. 2 μg of the total RNA, 1 μl of reverse transcriptase, and 0.5 μg of oligo (oligo; dT) were used to synthesize cDNA. The synthesized cDNA was used in a real-time polymerase chain reaction. The real-time polymerase chain reaction was performed on an ABI PRISM 7500 sequence detection system (Applied Biosystems) and an SYBR GREEN PCR Master Mix (Takara, Japan). The real-time polymerase chain reaction was performed under conditions of 94° C., 1 min; 95° C., 15 sec; 60° C., 34 sec for 40 cycles. Results were analyzed by a comparative cycle threshold (CT) method. And the used primers are as follows (Table 17).
The human dental pulp cells (hDPCs) cultured in Example 3 were treated with the peptides (concentration of 10 μg/ml) of each group synthesized in Example 1-1, and cultured for 48 hours. Then, mRNA levels of an odontoblast differentiation marker Dspp gene expressed in the human dental pulp cells were measured, and a ratio of the measured Dspp mRNA level relative to a Dspp mRNA level measured in a control group was calculated, respectively (Tables 18 to 33).
The expression level of the Dspp gene was measured through RT-PCR and real-time PCR analysis described in Example 1-4. In this regard, GAPDH gene was used as an internal control. The experiments were performed in triplicate, and then mean values and standard deviations thereof were taken as measured values. The base sequence of the primers is described in Table 17 above.

In order of rising “mRNA level of Dspp gene, Mean” value:
1. 53 (KYQKKKK; Novel peptide) [compound 53]  1.422
2. 51 (KYQKRRK; Novel peptide) [compound 51]  1.569
3. 49 (KYQKRKK; Novel peptide) [compound 49]  1.631
4. 54 (KYQKKRK; Novel peptide) [compound 54]  1.638
5. 86 (KYKNKRK; Novel peptide) [compound 86]  1.736
6. 72 (KYNRKRR; Novel peptide) [compound 72]  1.739
7. 81 (KYKNRKK; Novel peptide) [compound 81]  1.757
8. 50 (KYQKRKR; Novel peptide) [compound 50]  1.803
9. 64 (KYNKKRR; Novel peptide) [compound 64]  1.829
10. 85 (KYKNKKK; Novel peptide) [compound 85]  1.838
11. 69 (KYNRKKK; Novel peptide) [compound 69]  1.899
12. 56 (KYQKKRR; Novel peptide) [compound 56]  1.909
13. 61 (KYNKKKK; Novel peptide) [compound 61]  1.909
14. 82 (KYKNRKR; Novel peptide) [compound 82]  1.909
15. 77 (KYRNKKK; Novel peptide) [compound 77]  1.939
16. 70 (KYNRKRK; Novel peptide) [compound 70]  1.947
17. 52 (KYQKRRR; Novel peptide) [compound 52]  1.949
18. 55 (KYQKKKR; Novel peptide) [compound 55]  2
19. 83 (KYKNRRK; Novel peptide) [compound 83]  2.001
20. 30 (KYQQKRK; Novel peptide) [compound 30]  2.011
21. 71 (KYNRKKR; Novel peptide) [compound 71]  2.052
22. 66 (KYNRRKR; Novel peptide) [compound 66]  2.072
23. 60 (KYNKRRR; Novel peptide) [compound 60]  2.089
24. 38 (KYRRKRK; Novel peptide) [compound 38]  2.099
25. 84 (KYKNRRR; Novel peptide) [compound 84]  2.101
26. 74 (KYRNRKR; Novel peptide) [compound 74]  2.105
27. 78 (KYRNKRK; Novel peptide) [compound 78]  2.109
28. 65 (KYNRRKK; Novel peptide) [compound 65]  2.201
29. 73 (KYRNRKK; Novel peptide) [compound 73]  2.208
30. 27 (KYQQRRK; Novel peptide) [compound 27]  2.213
31. 32 (KYQQKRR; Novel peptide) [compound 32]  2.303
32. 68 (KYNRRRR; Novel peptide) [compound 68]  2.343
33. 63 (KYNKKKR; Novel peptide) [compound 63]  2.373
34. 76 (KYRNRRR; Novel peptide) [compound 76]  2.394
35. 79 (KYRNKKR; Novel peptide) [compound 79]  2.403
36. 57 (KYNKRKK; Novel peptide) [compound 57]  2.415
37. 31 (KYQQKKR; Novel peptide) [compound 31]  2.432
38. 43 (KYKRRRK; Novel peptide) [compound 43]  2.435
39. 47 (KYKRKKR; Novel peptide) [compound 47]  2.439
40. 67 (KYNRRRK; Novel peptide) [compound 67]  2.452
41. 59 (KYNKRRK; Novel peptide) [compound 59]  2.463
42. 25 (KYQQRKK; Novel peptide) [compound 25]  2.491
43. 44 (KYKRRRR; Novel peptide) [compound 44]  2.517
44. 48 (KYKRKRR; Novel peptide) [compound 48]  2.602
45. 26 (KYQQRKR; Novel peptide) [compound 26]  2.623
46. 75 (KYRNRRK; Novel peptide) [compound 75]  2.624
47. 80 (KYRNKRR; Novel peptide) [compound 80]  2.636
48. 58 (KYNKRKR; Novel peptide) [compound 58]  2.677
49. 46 (KYKRKRK; Novel peptide) [compound 46]  2.733
50. 62 (KYNKKRK; Novel peptide) [compound 62]  2.752
51. 28 (KYQQRRR; Novel peptide) [compound 28]  2.781
52. 42 (KYKRRKR; Novel peptide) [compound 42]  2.808
53. 29 (KYQQKKK; Novel peptide) [compound 29]  2.926
54. 41 (KYKRRKK; Novel peptide) [compound 41]  2.937
55. 35 (KYRRRRK; Novel peptide) [compound 35]  3.017
56. 45 (KYKRKKK; Novel peptide) [compound 45]  3.051
57. 40 (KYRRKRR; Novel peptide) [compound 40]  3.109
58. 36 (KYRRRRR; Novel peptide) [compound 36]  3.256
59. 37 (KYRRKKK; Novel peptide) [compound 37]  3.303
60. 39 (KYRRKKR; Novel peptide) [compound 39]  3.412
61. 33 (KYRRRKK; Novel peptide) [compound 33]  3.615
62. 34 (KYRRRKR; Novel peptide) [compound 34]  3.727
63. 3 (KYQRRRK; Novel peptide) [compound 3]  6.512
64. 8 (KYQRKRR; Novel peptide) [compound 8]  6.531
65. 13 (KYRQKKK; Novel peptide) [compound 13]  6.655
66. 15 (KYRQKKR; Novel peptide) [compound 15]  6.764
67. 14 (KYRQKRK; Novel peptide) [compound 14]  6.839
68. 7 (KYQRKKR; Novel peptide) [compound 7]  6.881
69. 5 (KYQRKKK; Novel peptide) [compound 5]  6.893
70. 6 (KYQRKRK; Novel peptide) [compound 6]  6.931
71. 10 (KYRQRKR; Novel peptide) [compound 10]  6.996
72. 4 (KYQRRRR; Novel peptide) [compound 4]  7.071
73. 2 (KYQRRKR; Novel peptide) [compound 2]  7.171
74. 18 (KYKQRKR; Novel peptide) [compound 18]  7.319
75. 1 (KYQRRKK; Novel peptide) [compound 1]  7.371
76. 11 (KYRQRRK; Novel peptide) [compound 11]  7.385
77. 22 (KYKQKRK; Novel peptide) [compound 22]  7.412
78. 9 (KYRQRKK; Novel peptide) [compound 9]  7.543
79. 12 (KYRQRRR; Novel peptide) [compound 12]  7.548
80. 20 (KYKQRRR; Novel peptide) [compound 20]  7.553
81. 17 (KYKQRKK; Novel peptide) [compound 17]  7.712
82. 16 (KYRQKRR; Novel peptide) [compound 16]  7.739
83. 21 (KYKQKKK; Novel peptide) [compound 21]  7.893
84. 19 (KYKQRRK; Novel peptide) [compound 19]  7.931
85. 24 (KYKQKRR; Novel peptide) [compound 24]  8.512
86. 23 (KYKQKKR; Novel peptide) [compound 23]  9.171
